# Earlier results, collected in patent US8283364B2, “Compounds which have activity at M1 receptor and their uses in medicine” (Glaxo Group Limited, priority 2005, dated 2012).
# Assays:
# [1] = system: dopamine driven behaviours; conditions: amphetamine induced locomotion in rats, apomorphine induced climbing in mice, turning in 6-OH-DA lesioned rats, amphetamine-induced motor unrest in monkeys
# [2] = system: A10 and A9 dopamine cell firing; conditions: A10 versus A9
compound,measurement,setting,value
CCCCCCOc1nsnc1C1=CCCN(C)C1 [xanomeline],effect on dopamine driven behaviours,[1],reverses a number of dopamine driven behaviours
same,"effect on psychotic symptoms (suspiciousness, hallucinations, delusions)",psychotic symptoms; Alzheimer's patients,reduce psychotic symptoms
same,side effects,psychotic symptoms; ascribed to relatively non-selective nature of the compound,dose-limiting peripheral cholinergic side effects
same,effect on dopamine cell firing,[2],"inhibit A10, but not A9, dopamine cell firing"
